Read-outs that look alike come from different tables or passages of the source.
Columns and labels:
Format in all cases: biochemical
TTK = biological target: T1, TTK (Homo sapiens, UniProt P33981); assay: Kinase profiling TTK; conditions: for remaining activity at 100 µM: read-out: residual kinase activity, TTK
T1 sequence (P33981 1-857): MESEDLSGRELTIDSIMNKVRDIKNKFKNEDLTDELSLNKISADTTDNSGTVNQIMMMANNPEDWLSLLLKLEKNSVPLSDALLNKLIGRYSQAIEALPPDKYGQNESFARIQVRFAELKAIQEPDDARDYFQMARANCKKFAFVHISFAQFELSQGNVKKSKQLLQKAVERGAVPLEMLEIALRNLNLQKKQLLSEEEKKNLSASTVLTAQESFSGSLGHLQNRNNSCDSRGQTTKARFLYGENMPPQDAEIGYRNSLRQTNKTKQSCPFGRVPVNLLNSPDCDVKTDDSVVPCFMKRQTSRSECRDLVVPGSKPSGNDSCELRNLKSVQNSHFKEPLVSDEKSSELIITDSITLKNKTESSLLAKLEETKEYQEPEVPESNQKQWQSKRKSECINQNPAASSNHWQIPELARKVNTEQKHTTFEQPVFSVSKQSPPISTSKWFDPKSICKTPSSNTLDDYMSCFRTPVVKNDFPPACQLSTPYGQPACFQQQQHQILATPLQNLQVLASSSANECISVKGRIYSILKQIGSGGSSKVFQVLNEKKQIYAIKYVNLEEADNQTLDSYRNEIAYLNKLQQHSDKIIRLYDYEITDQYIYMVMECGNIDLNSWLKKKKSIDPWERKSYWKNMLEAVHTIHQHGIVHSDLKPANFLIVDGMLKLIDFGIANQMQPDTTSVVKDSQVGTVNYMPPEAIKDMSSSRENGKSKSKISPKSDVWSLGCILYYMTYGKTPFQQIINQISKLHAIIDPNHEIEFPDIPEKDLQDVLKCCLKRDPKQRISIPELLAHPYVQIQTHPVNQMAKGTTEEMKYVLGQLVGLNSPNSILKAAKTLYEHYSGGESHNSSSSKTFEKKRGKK
From the text: (§1) Any value less that 25 is considered to be highly significant inhibition.

SGK1 = biological target: T2, SGK1 (Homo sapiens, UniProt O00141); assay: Kinase profiling SGK1; conditions: for remaining activity at 100 µM: read-out: residual kinase activity, SGK1
T2 sequence (O00141 1-431): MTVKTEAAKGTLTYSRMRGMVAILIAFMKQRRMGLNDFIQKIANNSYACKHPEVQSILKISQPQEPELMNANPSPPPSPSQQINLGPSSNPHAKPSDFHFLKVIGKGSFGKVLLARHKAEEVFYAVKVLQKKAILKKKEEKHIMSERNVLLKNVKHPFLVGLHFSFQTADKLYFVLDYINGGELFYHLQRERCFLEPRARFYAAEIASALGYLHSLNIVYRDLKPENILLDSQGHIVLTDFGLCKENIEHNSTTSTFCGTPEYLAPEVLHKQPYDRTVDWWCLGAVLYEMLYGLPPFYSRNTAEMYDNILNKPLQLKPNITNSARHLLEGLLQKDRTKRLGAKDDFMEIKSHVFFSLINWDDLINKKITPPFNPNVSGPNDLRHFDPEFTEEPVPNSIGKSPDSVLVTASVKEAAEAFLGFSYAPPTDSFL
From the text: as §1

DYRK1A = DYRK1A (Homo sapiens, UniProt Q13627); assay: DYRK 1A assay (kinase profiling); conditions: for remaining activity at 100 µM: read-out: residual kinase activity, DYRK1A
Protocol: Assays are stopped by addition of 5 μl of 0.5 M (3%) orthophosphoric acid and then harvested onto P81 Unifilter plates with a wash buffer of 50 mM orthophosphoric acid.
as §1

IRAK4 = biological target: T3, IRAK4 (Homo sapiens, UniProt Q9NWZ3); assay: Kinase profiling IRAK4; conditions: for remaining activity at 100 µM: read-out: residual kinase activity, IRAK4
T3 sequence (Q9NWZ3 1-460): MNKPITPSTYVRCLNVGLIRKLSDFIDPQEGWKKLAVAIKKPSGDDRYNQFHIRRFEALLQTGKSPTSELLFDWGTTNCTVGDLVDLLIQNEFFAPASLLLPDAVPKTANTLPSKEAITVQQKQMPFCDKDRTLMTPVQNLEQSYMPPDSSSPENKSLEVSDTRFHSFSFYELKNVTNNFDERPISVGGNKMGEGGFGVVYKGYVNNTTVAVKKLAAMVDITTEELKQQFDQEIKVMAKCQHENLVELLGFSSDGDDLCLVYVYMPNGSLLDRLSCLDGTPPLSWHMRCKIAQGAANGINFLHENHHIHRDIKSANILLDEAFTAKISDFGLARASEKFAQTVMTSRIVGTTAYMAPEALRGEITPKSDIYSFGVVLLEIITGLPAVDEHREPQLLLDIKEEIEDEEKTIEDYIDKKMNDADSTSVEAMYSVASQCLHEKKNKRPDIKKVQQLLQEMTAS
From the text: as §1

MST2 = biological target: T4, MST2 (Homo sapiens, UniProt Q13188); assay: Kinase profiling MST2; conditions: for remaining activity at 100 µM: read-out: residual kinase activity, MST2
T4 sequence (Q13188 1-491): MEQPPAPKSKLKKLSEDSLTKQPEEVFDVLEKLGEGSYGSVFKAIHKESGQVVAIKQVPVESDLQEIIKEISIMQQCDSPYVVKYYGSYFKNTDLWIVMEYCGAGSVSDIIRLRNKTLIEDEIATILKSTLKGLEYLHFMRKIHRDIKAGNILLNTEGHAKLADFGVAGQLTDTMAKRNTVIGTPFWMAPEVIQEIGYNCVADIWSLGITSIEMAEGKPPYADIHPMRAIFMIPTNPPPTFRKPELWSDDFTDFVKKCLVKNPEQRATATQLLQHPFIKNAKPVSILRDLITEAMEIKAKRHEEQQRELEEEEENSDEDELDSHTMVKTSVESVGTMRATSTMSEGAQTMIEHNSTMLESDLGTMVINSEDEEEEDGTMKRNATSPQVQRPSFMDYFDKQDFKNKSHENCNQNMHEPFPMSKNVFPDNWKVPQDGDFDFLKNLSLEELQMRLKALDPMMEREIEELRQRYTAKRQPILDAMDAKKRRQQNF
From the text: as §1

[1] = 100 micromolar inhibitor concentration, 100 is no change
[2] = 100 micromolar inhibitor, 100 = no change

SMILES: O=C(Nc1nc2ccc(F)cc2s1)c1ccccc1 [Compound 03-92]
- residual kinase activity, TTK (TTK; [1]): 47
- residual kinase activity, SGK1 (SGK1; [1]): 93
- residual kinase activity, DYRK1A (DYRK1A; [1]): 11
- residual kinase activity, IRAK4 (IRAK4; [1]): 72
- residual kinase activity, MST2 (MST2; [1]): 110

SMILES: CC(=O)Nc1nc2ccc(F)cc2s1 [Compound 03-94]
- residual kinase activity, TTK (TTK; [1]): 37
- residual kinase activity, SGK1 (SGK1; [1]): 67
- residual kinase activity, DYRK1A (DYRK1A; [1]): 12
- residual kinase activity, IRAK4 (IRAK4; [1]): 44
- residual kinase activity, MST2 (MST2; [1]): 91

SMILES: COc1ccc2sc(NC(=O)c3ccccc3)nc2c1 [Compound 03-95]
- residual kinase activity, TTK (TTK; [1]): 71
- residual kinase activity, SGK1 (SGK1; [1]): 60
- residual kinase activity, DYRK1A (DYRK1A; [1]): 30
- residual kinase activity, IRAK4 (IRAK4; [1]): 57
- residual kinase activity, MST2 (MST2; [1]): 95

SMILES: COc1ccc2nc(NC(=O)c3ccccc3)sc2c1 [Compound 03-98]
- residual kinase activity, TTK (TTK; [1]): 18
- residual kinase activity, SGK1 (SGK1; [1]): 78
- residual kinase activity, DYRK1A (DYRK1A; [1]): 6
- residual kinase activity, IRAK4 (IRAK4; [1]): 46
- residual kinase activity, MST2 (MST2; [1]): 86

SMILES: O=C(Nc1nc2ccc(C(F)(F)F)cc2s1)c1ccccc1 [Compound 03-99]
- residual kinase activity, TTK (TTK; [1]): 32
- residual kinase activity, SGK1 (SGK1; [1]): 69
- residual kinase activity, DYRK1A (DYRK1A; [1]): 9
- residual kinase activity, IRAK4 (IRAK4; [1]): 70
- residual kinase activity, MST2 (MST2; [1]): 93

SMILES: O=C(Nc1nc2cc(O)ccc2s1)c1ccccc1 [Compound 03-102]
- residual kinase activity, TTK (TTK; [1]): 30
- residual kinase activity, SGK1 (SGK1; [1]): 86
- residual kinase activity, DYRK1A (DYRK1A; [1]): 6
- residual kinase activity, IRAK4 (IRAK4; [1]): 34
- residual kinase activity, MST2 (MST2; [1]): 46

SMILES: COC(=O)c1cccc(C(=O)Nc2nc3ccc(C(F)(F)F)cc3s2)c1 [Compound 03-105, Methyl 3-((6-(trifluoromethyl)benzo[d]thiazol-2-yl)carbamoyl)benzoate]
- remaining activity at 100 µM (TTK): 9%
- remaining activity at 100 µM (SGK1): 86%
- remaining activity at 100 µM (DYRK1A): 2%
- remaining activity at 100 µM (IRAK4): 78%
- remaining activity at 100 µM (MST2): 99%

SMILES: N#Cc1ccc2nc(NC(=O)c3ccccc3)sc2c1 [Compound 03-106]
- residual kinase activity, TTK (TTK; [1]): 42
- residual kinase activity, SGK1 (SGK1; [1]): 77
- residual kinase activity, DYRK1A (DYRK1A; [1]): 3
- residual kinase activity, IRAK4 (IRAK4; [1]): 70
- residual kinase activity, MST2 (MST2; [1]): 103

SMILES: COC(=O)c1cccc(C(=O)Nc2nc3cc(OC)ccc3s2)c1 [Compound 03-108]
- residual kinase activity, TTK (TTK; [1]): 94
- residual kinase activity, SGK1 (SGK1; [1]): 83
- residual kinase activity, DYRK1A (DYRK1A; [1]): 51
- residual kinase activity, IRAK4 (IRAK4; [1]): 63
- residual kinase activity, MST2 (MST2; [1]): 77

SMILES: COC(=O)c1cccc(C(=O)Nc2nc3ccc(F)cc3s2)c1 [Compound 03-110]
- residual kinase activity, TTK (TTK; [1]): 35
- residual kinase activity, SGK1 (SGK1; [1]): 87
- residual kinase activity, DYRK1A (DYRK1A; [1]): 13
- residual kinase activity, IRAK4 (IRAK4; [1]): 96
- residual kinase activity, MST2 (MST2; [1]): 88

SMILES: COc1ccc2sc(NC(=O)c3cccc(C(N)=O)c3)nc2c1 [Compound 03-113]
- residual kinase activity, TTK (TTK; [1]): 95
- residual kinase activity, SGK1 (SGK1; [1]): 88
- residual kinase activity, DYRK1A (DYRK1A; [1]): 51
- residual kinase activity, IRAK4 (IRAK4; [1]): 58
- residual kinase activity, MST2 (MST2; [1]): 119

SMILES: COc1ccc2nc(C(=O)Nc3ccccc3)sc2c1 [Compound 13-03]
- residual kinase activity, TTK (TTK; [2]): 108
- residual kinase activity, SGK1 (SGK1; [2]): 91
- residual kinase activity, DYRK1A (DYRK1A; [2]): 45
- residual kinase activity, IRAK4 (IRAK4; [2]): 93
- residual kinase activity, MST2 (MST2; [2]): 107

SMILES: CC(=O)Nc1nc2ccc([N+](=O)[O-])cc2s1 [Compound 13-10]
- remaining activity at 100 µM (TTK; [1]): 55%
- remaining activity at 100 µM (SGK1; [1]): 58%
- remaining activity at 100 µM (DYRK1A; [1]): 6%
- remaining activity at 100 µM (IRAK4; [1]): 8%
- remaining activity at 100 µM (MST2; [1]): 97%

SMILES: COc1cccc(NC(=O)Nc2nc3cc(O)ccc3s2)c1 [Compound 13-62]
- residual kinase activity, TTK (TTK; [2]): 25
- residual kinase activity, SGK1 (SGK1; [2]): 21
- residual kinase activity, DYRK1A (DYRK1A; [2]): 7
- residual kinase activity, IRAK4 (IRAK4; [2]): 17
- residual kinase activity, MST2 (MST2; [2]): 3

Source: patent US10231954B2, “Neurodegenerative therapies” (LYTIX BIOPHARMA AS, priority 2014, dated 2019)
